Calls of active or inactive are those of the source. The rule behind the calls is not given here.
Key:
Assay type in all cases: functional
[1] = test system: Salmonella typhi; experiment: Antimicrobial activity against Salmonella enterica subsp. enterica serovar Typhi at 100 ppm after 24 hr by disk diffusion method; settings: for zone of inhibition at 100 ppm: read-out: IZ
[2] = test system: Vibrio cholerae; experiment: Antimicrobial activity against Vibrio cholerae at 500 ppm after 24 hr by disk diffusion method; settings: read-out: IZ
[3] = test system: Vibrio cholerae; experiment: Antimicrobial activity against Vibrio cholerae at 200 ppm after 24 hr by disk diffusion method; settings: read-out: IZ
[4] = test system: Vibrio cholerae; experiment: Antimicrobial activity against Vibrio cholerae at 100 ppm after 24 hr by disk diffusion method; settings: for zone of inhibition at 100 ppm: read-out: IZ
[5] = test system: Streptococcus; experiment: Antimicrobial activity against beta-hemolytic Streptococcus at 500 ppm after 24 hr by disk diffusion method; settings: read-out: IZ
[6] = test system: Streptococcus; experiment: Antimicrobial activity against beta-hemolytic Streptococcus at 200 ppm after 24 hr by disk diffusion method; settings: read-out: IZ
[7] = test system: Streptococcus; experiment: Antimicrobial activity against beta-hemolytic Streptococcus at 100 ppm after 24 hr by disk diffusion method; settings: for zone of inhibition at 100 ppm: read-out: IZ
[8] = test system: Staphylococcus aureus; experiment: Antimicrobial activity against Staphylococcus aureus at 500 ppm after 24 hr by disk diffusion method; settings: read-out: IZ
[9] = test system: Staphylococcus aureus; experiment: Antimicrobial activity against Staphylococcus aureus at 200 ppm after 24 hr by disk diffusion method; settings: read-out: IZ
[10] = test system: Staphylococcus aureus; experiment: Antimicrobial activity against Staphylococcus aureus at 100 ppm after 24 hr by disk diffusion method; settings: for zone of inhibition at 100 ppm: read-out: IZ
[11] = test system: Nannizzia gypsea; experiment: Antimicrobial activity against Microsporum gypseum at 100 ppm after 72 to 96 hr by disk diffusion method; settings: for zone of inhibition at 100 ppm: read-out: IZ
[12] = test system: Rhizopus; experiment: Antimicrobial activity against Rhizopus at 500 ppm after 72 to 96 hr by disk diffusion method; settings: read-out: IZ
[13] = test system: Rhizopus; experiment: Antimicrobial activity against Rhizopus at 200 ppm after 72 to 96 hr by disk diffusion method; settings: for zone of inhibition at 200 ppm: read-out: IZ
[14] = test system: Rhizopus; experiment: Antimicrobial activity against Rhizopus at 100 ppm after 72 to 96 hr by disk diffusion method
[15] = test system: Mucor; experiment: Antimicrobial activity against Mucor at 500 ppm after 72 to 96 hr by disk diffusion method; settings: read-out: IZ
[16] = test system: Mucor; experiment: Antimicrobial activity against Mucor at 200 ppm after 72 to 96 hr by disk diffusion method; settings: read-out: IZ
[17] = test system: Mucor; experiment: Antimicrobial activity against Mucor at 100 ppm after 72 to 96 hr by disk diffusion method; settings: for zone of inhibition at 100 ppm: read-out: IZ
[18] = test system: Aspergillus flavus; experiment: Antimicrobial activity against Aspergillus flavus at 500 ppm after 72 to 96 hr by disk diffusion method; settings: read-out: IZ
[19] = test system: Aspergillus flavus; experiment: Antimicrobial activity against Aspergillus flavus at 200 ppm after 72 to 96 hr by disk diffusion method; settings: read-out: IZ
[20] = test system: Aspergillus flavus; experiment: Antimicrobial activity against Aspergillus flavus at 100 ppm after 72 to 96 hr by disk diffusion method; settings: for zone of inhibition at 100 ppm: read-out: IZ
[21] = test system: Pseudomonas; experiment: Antimicrobial activity against Pseudomonas at 500 ppm after 24 hr by disk diffusion method; settings: read-out: IZ
[22] = test system: Pseudomonas; experiment: Antimicrobial activity against Pseudomonas at 200 ppm after 24 hr by disk diffusion method; settings: read-out: IZ
[23] = test system: Pseudomonas; experiment: Antimicrobial activity against Pseudomonas at 100 ppm after 24 hr by disk diffusion method; settings: for zone of inhibition at 100 ppm: read-out: IZ
[24] = test system: Klebsiella pneumoniae; experiment: Antimicrobial activity against Klebsiella pneumoniae at 500 ppm after 24 hr by disk diffusion method; settings: read-out: IZ
[25] = test system: Klebsiella pneumoniae; experiment: Antimicrobial activity against Klebsiella pneumoniae at 200 ppm after 24 hr by disk diffusion method; settings: read-out: IZ
[26] = test system: Klebsiella pneumoniae; experiment: Antimicrobial activity against Klebsiella pneumoniae at 100 ppm after 24 hr by disk diffusion method; settings: for zone of inhibition at 100 ppm: read-out: IZ
[27] = test system: Escherichia coli; experiment: Antimicrobial activity against Escherichia coli at 500 ppm after 24 hr by disk diffusion method; settings: read-out: IZ
[28] = test system: Escherichia coli; experiment: Antimicrobial activity against Escherichia coli at 200 ppm after 24 hr by disk diffusion method; settings: read-out: IZ
[29] = test system: Escherichia coli; experiment: Antimicrobial activity against Escherichia coli at 100 ppm after 24 hr by disk diffusion method
[30] = test system: Shigella flexneri; experiment: Antimicrobial activity against Shigella flexneri at 500 ppm after 24 hr by disk diffusion method; settings: read-out: IZ
[31] = test system: Nannizzia gypsea; experiment: Antimicrobial activity against Microsporum gypseum at 500 ppm after 72 to 96 hr by disk diffusion method; settings: read-out: IZ
[32] = test system: Nannizzia gypsea; experiment: Antimicrobial activity against Microsporum gypseum at 200 ppm after 72 to 96 hr by disk diffusion method; settings: for zone of inhibition at 200 ppm: read-out: IZ
[33] = test system: Shigella flexneri; experiment: Antimicrobial activity against Shigella flexneri at 200 ppm after 24 hr by disk diffusion method; settings: read-out: IZ
[34] = test system: Shigella flexneri; experiment: Antimicrobial activity against Shigella flexneri at 100 ppm after 24 hr by disk diffusion method; settings: for zone of inhibition at 100 ppm: read-out: IZ
[35] = test system: Salmonella typhi; experiment: Antimicrobial activity against Salmonella enterica subsp. enterica serovar Typhi at 500 ppm after 24 hr by disk diffusion method; settings: read-out: IZ
[36] = test system: Salmonella typhi; experiment: Antimicrobial activity against Salmonella enterica subsp. enterica serovar Typhi at 200 ppm after 24 hr by disk diffusion method; settings: read-out: IZ

| Structure (SMILES) | zone of inhibition at 500 ppm [2] | zone of inhibition at 200 ppm [3] | zone of inhibition at 500 ppm [5] | zone of inhibition at 200 ppm [6] | zone of inhibition at 500 ppm [8] | zone of inhibition at 200 ppm [9] | zone of inhibition at 500 ppm [12] | zone of inhibition at 500 ppm [15] | zone of inhibition at 200 ppm [16] | zone of inhibition at 500 ppm [18] | zone of inhibition at 200 ppm [19] | zone of inhibition at 500 ppm [21] | zone of inhibition at 200 ppm [22] | zone of inhibition at 500 ppm [24] | zone of inhibition at 200 ppm [25] | zone of inhibition at 500 ppm [27] | zone of inhibition at 200 ppm [28] | zone of inhibition at 500 ppm [30] | zone of inhibition at 500 ppm [31] | zone of inhibition at 200 ppm [33] | other results |
| --- | --- | --- | --- | --- | --- | --- | --- | --- | --- | --- | --- | --- | --- | --- | --- | --- | --- | --- | --- | --- | --- |
| COc1ccc(/C=C/C(=O)c2ccc(N3CCOCC3)cc2)cc1 | 17 mm | 12 mm | 30 mm | 22 mm | 30 mm | 22 mm | 17 mm | 17 mm | 12 mm | 17 mm | 12 mm | 30 mm | 22 mm | 30 mm | 17 mm | 17 mm | 12 mm | 22 mm | 17 mm | 17 mm | inhibition zone (IZ) [1]: inactive; inhibition zone (IZ) [4]: inactive; zone of inhibition at 100 ppm [7]: 12 mm; zone of inhibition at 100 ppm [10]: 12 mm; zone of inhibition at 100 ppm [11]: 12 mm; zone of inhibition at 200 ppm [13]: 12 mm; inhibition zone (IZ) [14]: inactive; inhibition zone (IZ) [17]: inactive; zone of inhibition at 100 ppm [20]: 12 mm; zone of inhibition at 100 ppm [23]: 12 mm; inhibition zone (IZ) [26]: inactive; inhibition zone (IZ) [29]: inactive; zone of inhibition at 200 ppm [32]: 12 mm; inhibition zone (IZ) [34]: inactive; zone of inhibition at 500 ppm [35]: 17 mm; zone of inhibition at 200 ppm [36]: 12 mm |
| O=C(/C=C/c1ccc(Cl)cc1)c1ccc(N2CCOCC2)cc1 | 17 mm | 17 mm | 22 mm | 17 mm | 22 mm | 17 mm | 30 mm | 22 mm | 17 mm | 30 mm | 22 mm | 30 mm | 22 mm | 30 mm | 22 mm | 17 mm | 17 mm | 22 mm | 22 mm | 17 mm | inhibition zone (IZ) [1]: inactive; zone of inhibition at 100 ppm [4]: 12 mm; zone of inhibition at 100 ppm [7]: 12 mm; zone of inhibition at 100 ppm [10]: 12 mm; zone of inhibition at 100 ppm [11]: 12 mm; zone of inhibition at 200 ppm [13]: 17 mm; inhibition zone (IZ) [14]: inactive; zone of inhibition at 100 ppm [17]: 12 mm; inhibition zone (IZ) [20]: inactive; zone of inhibition at 100 ppm [23]: 17 mm; zone of inhibition at 100 ppm [26]: 12 mm; zone of inhibition at 100 ppm ([29]; read-out: IZ): 12 mm; zone of inhibition at 200 ppm [32]: 17 mm; zone of inhibition at 100 ppm [34]: 17 mm; zone of inhibition at 500 ppm [35]: 22 mm; zone of inhibition at 200 ppm [36]: 17 mm |
| Cc1ccc(/C=C/C(=O)c2ccc(N3CCOCC3)cc2)cc1 | 17 mm | 12 mm | 30 mm | 17 mm | 30 mm | 17 mm | 17 mm | 17 mm | 12 mm | 17 mm | 12 mm | 30 mm | 22 mm | 30 mm | 17 mm | 17 mm | 12 mm | 30 mm | 17 mm | 17 mm | zone of inhibition at 100 ppm [1]: 12 mm; zone of inhibition at 100 ppm [4]: 12 mm; zone of inhibition at 100 ppm [7]: 12 mm; inhibition zone (IZ) [10]: inactive; zone of inhibition at 100 ppm [11]: 12 mm; inhibition zone (IZ) [13]: inactive; zone of inhibition at 100 ppm ([14]; read-out: IZ): 12 mm; zone of inhibition at 100 ppm [17]: 12 mm; zone of inhibition at 100 ppm [20]: 12 mm; zone of inhibition at 100 ppm [23]: 17 mm; zone of inhibition at 100 ppm [26]: 12 mm; inhibition zone (IZ) [29]: inactive; inhibition zone (IZ) [32]: inactive; zone of inhibition at 100 ppm [34]: 12 mm; zone of inhibition at 500 ppm [35]: 17 mm; zone of inhibition at 200 ppm [36]: 17 mm |
| O=C(/C=C/c1cccc([N+](=O)[O-])c1)c1ccc(N2CCOCC2)cc1 | 17 mm | 12 mm | 22 mm | 17 mm | 22 mm | 17 mm | 22 mm | 22 mm | 17 mm | 22 mm | 17 mm | 30 mm | 22 mm | 22 mm | 17 mm | 22 mm | 17 mm | 22 mm | 22 mm | 17 mm | inhibition zone (IZ) [1]: inactive; inhibition zone (IZ) [4]: inactive; inhibition zone (IZ) [7]: inactive; inhibition zone (IZ) [10]: inactive; zone of inhibition at 100 ppm [11]: 12 mm; zone of inhibition at 200 ppm [13]: 17 mm; inhibition zone (IZ) [14]: inactive; inhibition zone (IZ) [17]: inactive; zone of inhibition at 100 ppm [20]: 12 mm; inhibition zone (IZ) [23]: inactive; inhibition zone (IZ) [26]: inactive; inhibition zone (IZ) [29]: inactive; zone of inhibition at 200 ppm [32]: 17 mm; zone of inhibition at 100 ppm [34]: 12 mm; zone of inhibition at 500 ppm [35]: 17 mm; zone of inhibition at 200 ppm [36]: 12 mm |
| O=C(/C=C/c1ccc(F)cc1)c1ccc(N2CCOCC2)cc1 | 17 mm | 17 mm | 22 mm | 17 mm | 22 mm | 17 mm | 22 mm | 22 mm | 17 mm | 30 mm | 17 mm | 30 mm | 22 mm | 22 mm | 12 mm | 17 mm | 17 mm | 22 mm | 30 mm | 17 mm | zone of inhibition at 100 ppm [1]: 12 mm; zone of inhibition at 100 ppm [4]: 12 mm; inhibition zone (IZ) [7]: inactive; inhibition zone (IZ) [10]: inactive; inhibition zone (IZ) [11]: inactive; zone of inhibition at 200 ppm [13]: 17 mm; inhibition zone (IZ) [14]: inactive; inhibition zone (IZ) [17]: inactive; zone of inhibition at 100 ppm [20]: 12 mm; inhibition zone (IZ) [23]: inactive; inhibition zone (IZ) [26]: inactive; inhibition zone (IZ) [29]: inactive; zone of inhibition at 200 ppm [32]: 17 mm; inhibition zone (IZ) [34]: inactive; zone of inhibition at 500 ppm [35]: 17 mm; zone of inhibition at 200 ppm [36]: 17 mm |

— ChEMBL document CHEMBL3045021, “Synthesis, antibacterial, and antifungal activities of biolabile (E)-1-(4-morpholinophenyl)-3-aryl-prop-2-en-1-ones” (2009)
